According to US20050032873A1, “3-Amino chroman and 2-amino tetralin derivatives” (Wyeth, priority 2003, published 2005):
Structures can show the parent of a compound that is named as a salt. Where two headings read alike, the source gives them in different places. Each block holds one compound with its values, some of them ahead of it.

Key:
serotonin transporter = target: T1, serotonin transporter (Rattus norvegicus, UniProt P31652); experiment: 5-HT transporter affinity: displacement of 3H-paroxetine from male rat cortical membranes; assay type: binding; conditions: displacement of 3H-paroxetine; male rat cortical membranes; read-out: 5-HT Transporter Affinity Ki
T1 construct: displace ^3H-paroxetine from male rat cortical membranes; from tissue; host or cells: male rat cortical membranes

5-HT1A receptor [1] = target: T2, 5-HT1A receptor (Homo sapiens, UniProt P08908); experiment: 5-HT1A receptor affinity: displacement of [3H] 8-OH-DPAT; assay type: binding; set-up: expressed in transfected cells; conditions: for Ki: displacement of [3H] 8-OH-DPAT, CHO cells stably transfected with human 5-HT1A receptors, read-out: 5-HT1A Receptor Affinity Ki; for inhibition at 1 µM: read-out: 5-HT1A Receptor Affinity, % @ 1 μM
T2 sequence (P08908 1-422): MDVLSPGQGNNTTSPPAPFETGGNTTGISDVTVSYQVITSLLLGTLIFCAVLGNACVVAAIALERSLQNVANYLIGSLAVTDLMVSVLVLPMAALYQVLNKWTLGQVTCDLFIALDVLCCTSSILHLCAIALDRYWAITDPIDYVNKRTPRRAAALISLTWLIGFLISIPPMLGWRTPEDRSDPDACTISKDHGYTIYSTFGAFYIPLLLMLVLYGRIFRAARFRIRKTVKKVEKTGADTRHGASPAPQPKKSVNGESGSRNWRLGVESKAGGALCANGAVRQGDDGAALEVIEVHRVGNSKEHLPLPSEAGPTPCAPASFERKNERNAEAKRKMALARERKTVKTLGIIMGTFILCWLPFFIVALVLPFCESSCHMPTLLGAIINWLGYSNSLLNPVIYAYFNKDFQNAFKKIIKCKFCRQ

5-HT1A receptor [2] = target: T2, 5-HT1A receptor; experiment: cAMP accumulation assay, 5-HT1A function; assay type: cell-based; conditions: for EC50: cells marked EC50 (agonist); for Emax: in brackets after EC50 or IC50, read-out: 5-HT1A Function cAMP (Emax); for IC50: cells marked IC50 (antagonist), read-out: 5-HT1A Function cAMP IC50
[3] = target: T3, cloned human 5-HT1A receptors (Homo sapiens, UniProt P08908); experiment: 35S-GTPγS binding assay, 5-HT1A function; assay type: biochemical; conditions: for EC50: agonist potency; for IC50: antagonist potency, reversal of 8-OH-DPAT, read-out: 5-HT1A Function GTPγS IC50
T3 construct: expressed in transfected cells
T3 sequence (P08908 1-422): T2 sequence (P08908 1-422)

[4] = maximum stimulatory effect, in brackets after EC50, read-out: 5-HT1A Function GTPγS (Emax)
[5] = maximum inhibitory effect, in brackets after IC50, read-out: 5-HT1A Function GTPγS (Imax)

T1 sequence (P31652 whole entry): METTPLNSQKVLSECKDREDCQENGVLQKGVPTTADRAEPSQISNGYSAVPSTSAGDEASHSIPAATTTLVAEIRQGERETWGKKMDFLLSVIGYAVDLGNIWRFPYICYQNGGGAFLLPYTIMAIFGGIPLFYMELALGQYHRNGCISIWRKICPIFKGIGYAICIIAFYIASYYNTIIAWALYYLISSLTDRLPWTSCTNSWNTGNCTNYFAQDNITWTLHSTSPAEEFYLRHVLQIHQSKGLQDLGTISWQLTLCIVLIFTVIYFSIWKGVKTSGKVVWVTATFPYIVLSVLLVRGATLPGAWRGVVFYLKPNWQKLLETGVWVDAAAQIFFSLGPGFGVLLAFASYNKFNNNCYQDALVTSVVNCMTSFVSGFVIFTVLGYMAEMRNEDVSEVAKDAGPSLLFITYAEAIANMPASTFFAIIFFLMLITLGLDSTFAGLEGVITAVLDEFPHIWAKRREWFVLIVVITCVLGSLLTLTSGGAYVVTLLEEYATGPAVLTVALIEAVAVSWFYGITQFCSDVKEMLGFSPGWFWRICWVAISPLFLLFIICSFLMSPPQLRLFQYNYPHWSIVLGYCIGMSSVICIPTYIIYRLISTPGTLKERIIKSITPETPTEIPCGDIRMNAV

Structure (SMILES): NC(=O)c1ccc(F)c2c1CC(NCCCc1c[nH]c3ccc(F)cc13)CO2 (single isomer, unassigned; (+)) (as salt: hydrochloride) [Compound 1a, (+)-8-fluoro-3-{[3-(5-fluoro-1H-indol-3-yl)propyl]amino}chromane-5-carboxamide]
melting point: 89 °C (dec.)

Structure (SMILES): NC(=O)c1ccc(F)c2c1CC(N(CCCc1c[nH]c3ccc(F)cc13)C1CCC1)CO2 (single isomer, unassigned; (+)) (as salt: hydrochloride) [Compound 4a, (+)-3-{cyclobutyl[3-(5-fluoro-1H-indol-3-yl)propyl]amino}-8-fluorochromane-5-carboxamide]
melting point: 129 °C (dec.)

Structure (SMILES): CCN(C(C)CCc1c[nH]c2ccc(F)cc12)C1COc2c(F)ccc(C(N)=O)c2C1 (single isomer, unassigned; (+)) (as salt: hydrochloride) [Compound 16b, (+)-3-{ethyl[3-(5-fluoro-1H-indol-3-yl)-1-methylpropyl]amino}-8-fluorochromane-5-carboxamide]
melting point: 135 °C (dec.)

Structure (SMILES): CCCN(CCCc1c[nH]c2ccc(F)cc12)C1CCc2c(F)ccc(OC)c2C1 (single isomer, unassigned; (+)) (as salt: hydrochloride) [Compound 51a, (+)-5-fluoro-N-[3-(5-fluoro-1H-indol-3-yl)propyl]-8-methoxy-N-propyl-1,2,3,4-tetrahydro-2-naphthalenamine]
melting point: 117 °C (dec.)

Structure (SMILES): NC(=O)c1ccc(F)c2c1CC(NCCCc1c[nH]c3ccc(F)cc13)CO2 (single isomer, unassigned; (-)) (as salt: hydrochloride) [Compound 1b, (−)-8-fluoro-3-{[3-(5-fluoro-1H-indol-3-yl)propyl]amino}chromane-5-carboxamide]
melting point: 87 °C (dec.)

Structure (SMILES): CCCN(CCCc1c[nH]c2ccc(F)cc12)C1COc2c(F)ccc(C(N)=O)c2C1 (single isomer, unassigned; (-)) (as salt: hydrochloride) [Compound 2a, (−)-8-fluoro-3-[[3-(5-fluoro-1H-indol-3-yl)propyl](propyl)amino]-3,4-dihydro-2H-chromene-5-carboxamide]
melting point: 126 °C (dec.)

Structure (SMILES): NC(=O)c1ccc(F)c2c1CC(N(CCCc1c[nH]c3ccc(F)cc13)CC1CC1)CO2 (single isomer, unassigned; (-)) (as salt: hydrochloride) [Compound 5a, (−)-3-{(cyclopropylmethyl)[3-(5-fluoro-1H-indol-3-yl)propyl]amino}-8-fluorochromane-5-carboxamide]
melting point: 123 °C (dec.)

Structure (SMILES): CC(CCc1c[nH]c2ccc(F)cc12)N(CC1CC1)C1COc2c(F)ccc(C(N)=O)c2C1 (single isomer, unassigned; (-)) (as salt: hydrochloride) [Compound 15a, (−)-3-{(cyclopropylmethyl)[3-(5-fluoro-1H-indol-3-yl)-1-methylpropyl]amino}-8-fluorochromane-5-carboxamide]
melting point: 135 °C (dec.)

Structure (SMILES): NC(=O)c1cccc2c1CC(NCCCc1c[nH]c3ccc(F)cc13)CO2 (stereo not drawn) [Compound 133, 3-{[3-(5-fluoro-1H-indol-3-yl)propyl]amino}chromane-5-carboxamide]
Ki (serotonin transporter): 23.6 nM
Ki (5-HT1A receptor [1]): 65.1 nM
EC50 (5-HT1A receptor [2]): 128 nM
Emax (5-HT1A receptor [2]): 84%
EC50 [3]: 3000 nM
Emax [3, 4]: 100%
melting point: 153 to 155 °C

Structure (SMILES): NC(=O)c1cccc2c1CC(N(CCCc1c[nH]c3ccc(F)cc13)C1CCC1)CO2 (stereo not drawn) [Compound 134, 3-{cyclobutyl[3-(5-fluoro-1H-indol-3-yl)propyl]amino}chromane-5-carboxamide]
Ki (serotonin transporter): 8.67 nM
Ki (5-HT1A receptor [1]): 1.75 nM
EC50 (5-HT1A receptor [2]): 19.2 nM
Emax (5-HT1A receptor [2]): 81%
EC50 [3]: 21.8 nM
IC50 [3]: 184 nM
Emax [3, 5]: 69%
Emax [3, 4]: 28%
melting point: 102 to 105 °C

Structure (SMILES): O=C(O)c1cccc2c1CC(N(CCCc1c[nH]c3c(F)cc(F)cc13)C1CCC1)CO2 (stereo not drawn) [Compound 137, 3-{cyclobutyl[3-(5,7-difluoro-1H-indol-3-yl)propyl]amino}chromane-5-carboxylic acid]
Ki (serotonin transporter): 421 nM
inhibition at 1 µM (5-HT1A receptor [1]): 0%
melting point: 130 to 131 °C

Structure (SMILES): COc1cccc2c(CCNC3COc4c(F)ccc(C(N)=O)c4C3)coc12 (stereo not drawn) [Compound 156, 8-fluoro-3-{[2-(7-methoxy-1-benzofuran-3-yl)ethyl]amino}chromane-5-carboxamide]
Ki (serotonin transporter): 381 nM
inhibition at 1 µM (5-HT1A receptor [1]): 28%
melting point: 172 to 174 °C

Structure (SMILES): COc1cccc2c(CCCCNC3COc4c(F)ccc(C(N)=O)c4C3)coc12 (stereo not drawn) [Compound 167, 8-fluoro-3-{[4-(7-methoxy-1-benzofuran-3-yl)butyl]amino}chromane-5-carboxamide]
Ki (serotonin transporter): 44.9 nM
Ki (5-HT1A receptor [1]): 31.2 nM
IC50 (5-HT1A receptor [2]): 136 nM
Emax (5-HT1A receptor [2]): 0%
IC50 [3]: 1820 nM
Emax [3, 5]: 100%
melting point: 138 to 141 °C

Now from value to compound:

melting point: 265 °C (dec.)
Structure (SMILES): COc1cccc2c1CC(N[C@H]1CC[C@H](c3c[nH]c4ccc(F)cc43)CC1)CO2 (relative stereo) (as salt: hydrochloride) [Compound 181b, trans-N-[4-(5-fluoro-1H-indol-3-yl)cyclohexyl]-5-methoxychroman-3-amine]

melting point: 148 °C (dec.)
Structure (SMILES): CCCN(C1COc2cccc(OC)c2C1)[C@H]1CC[C@@H](c2c[nH]c3ccc(F)cc32)CC1 (relative stereo) (as salt: hydrochloride) [Compound 182, cis-N-[4-(5-fluoro-1H-indol-3-yl)cyclohexyl]-5-methoxy-N-propylchroman-3-amine]

melting point: 159 °C (dec.)
Structure (SMILES): CCCN(C1COc2cccc(OC)c2C1)[C@H]1CC[C@H](c2c[nH]c3ccc(F)cc32)CC1 (relative stereo) (as salt: hydrochloride) [Compound 183, trans-N-[4-(5-fluoro-1H-indol-3-yl)cyclohexyl]-5-methoxy-N-propylchroman-3-amine]

melting point: 160 to 165 °C
Structure (SMILES): CC(CCc1c[nH]c2c(F)cc(F)cc12)N(CC1CC1)C1COc2c(F)ccc(C(N)=O)c2C1 (single isomer, unassigned) (as salt: HCl) [Compound 154a, 3-{(cyclopropylmethyl)[3-(5,7-difluoro-1H-indol-3-yl)-1-methylpropyl]amino}-8-fluorochromane-5-carboxamide]

melting point: 148 to 150 °C
Structure (SMILES): CCCN(C(C)CCCc1c[nH]c2ccc(F)cc12)C1COc2c(F)ccc(C(N)=O)c2C1 (single isomer, unassigned; (+)) (as salt: hydrochloride) [Compound 14a, (+)-8-fluoro-3-[[4-(5-fluoro-1H-indol-3-yl)-1-methylbutyl](propyl)amino]chromane-5-carboxamide]

melting point: 147 to 150 °C
Structure (SMILES): CCCN(C(C)CCCc1c[nH]c2ccc(F)cc12)C1COc2c(F)ccc(C(N)=O)c2C1 (single isomer, unassigned; (-)) (as salt: hydrochloride) [Compound 14b, (−)-8-fluoro-3-[[4-(5-fluoro-1H-indol-3-yl)-1-methylbutyl](propyl)amino]chromane-5-carboxamide]

melting point: 132 °C (dec.)
Structure (SMILES): CCN(C(C)CCc1c[nH]c2ccc(F)cc12)C1COc2c(F)ccc(C(N)=O)c2C1 (single isomer, unassigned; (-)) (as salt: hydrochloride) [Compound 16a, (−)-3-{ethyl[3-(5-fluoro-1H-indol-3-yl)-1-methylpropyl]amino}-8-fluorochromane-5-carboxamide]

Ki (serotonin transporter): 234 nM
Ki (5-HT1A receptor [1]): 43.5 nM
IC50 (5-HT1A receptor [2]): 607 nM
Emax (5-HT1A receptor [2]): 0%
IC50 [3]: 3000 nM
Emax [3, 5]: 100%
melting point: 163 to 166 °C
Structure (SMILES): COc1cccc2c(CCCNC3COc4c(F)ccc(C(N)=O)c4C3)coc12 (stereo not drawn) [Compound 161, 8-fluoro-3-{[3-(7-methoxy-1-benzofuran-3-yl)propyl]amino}chromane-5-carboxamide]
